# According to paper PMC11585924, “Direct measurements of neurosteroid binding to specific sites on GABAA receptors” (British journal of pharmacology, 2024):
# Target: T1, α1β3 GABAA receptors (Homo sapiens, UniProt P14867+P28472)
# T1 construct: expressed in transfected cells; host or cells: Xenopus laevis oocytes, cRNA injected 5:1 (α1:β3)
# T1 sequence (P14867 28-456): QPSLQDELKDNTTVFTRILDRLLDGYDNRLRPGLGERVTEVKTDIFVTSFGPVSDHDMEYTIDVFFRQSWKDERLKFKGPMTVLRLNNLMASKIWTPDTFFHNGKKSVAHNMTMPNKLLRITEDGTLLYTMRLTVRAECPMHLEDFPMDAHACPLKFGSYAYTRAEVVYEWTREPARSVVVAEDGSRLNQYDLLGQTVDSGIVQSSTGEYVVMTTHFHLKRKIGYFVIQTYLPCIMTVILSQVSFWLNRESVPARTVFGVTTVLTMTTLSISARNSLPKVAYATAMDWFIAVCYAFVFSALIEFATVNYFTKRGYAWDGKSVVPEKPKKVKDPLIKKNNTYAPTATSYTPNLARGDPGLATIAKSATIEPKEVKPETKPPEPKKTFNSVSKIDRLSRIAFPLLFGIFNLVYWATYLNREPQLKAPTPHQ
# T1 sequence (P28472 26-473): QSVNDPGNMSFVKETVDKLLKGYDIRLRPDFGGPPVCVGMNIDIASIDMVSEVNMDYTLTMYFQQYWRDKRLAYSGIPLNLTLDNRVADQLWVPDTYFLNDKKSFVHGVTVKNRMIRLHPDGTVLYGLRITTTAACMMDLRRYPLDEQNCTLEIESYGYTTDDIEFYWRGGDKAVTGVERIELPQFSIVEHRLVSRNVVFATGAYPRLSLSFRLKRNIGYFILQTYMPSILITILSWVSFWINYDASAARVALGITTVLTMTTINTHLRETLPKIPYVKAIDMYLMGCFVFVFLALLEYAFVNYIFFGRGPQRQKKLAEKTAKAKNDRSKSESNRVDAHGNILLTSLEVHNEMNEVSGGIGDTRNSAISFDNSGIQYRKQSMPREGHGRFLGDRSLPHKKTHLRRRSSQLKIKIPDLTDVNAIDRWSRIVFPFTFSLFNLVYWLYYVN
# Assay: Two-electrode voltage clamp of GABA-elicited currents in Xenopus oocytes
# Type: cell-based
# Conditions: low GABA; wild-type α1β3
# Protocol: Receptor expression and electrophysiological recordings were conducted as described in detail previously ([Sugasawa et al., 2020]). In brief, α1β3 GABAA receptors were expressed in oocytes from the African clawed frog (X. laevis). The wild-type α1 and β3 subunits were of human origin (Genbank accession numbers NM_000806.5 and NM_000814.5, respectively). The α1 clone containing the Q-to-L mutation to the classic neurosteroid binding site ([Hosie et al., 2006]) was of rat origin. (The glutamine residue in ELIC-α1GABAAR is Q242, whereas the corresponding residue in rat α1 is Q241. For simplicity, the residue is referred to as Q242 for both rat and ELIC-α1GABAAR.) The oocytes were purchased as quarter ovaries from Xenopus1 (Dexter, MI, USA). Following digestion in 2% w/v (mg·ml^−1) collagenase A, the oocytes were injected with a total of 12 ng cRNA per oocyte in a 5:1 ratio (α1:β3) and incubated at 15°C for 2–3 days prior to electrophysiological recordings in ND96 (96-mM NaCl, 2-mM KCl, 1.8-mM CaCl2, 1-mM MgCl2, 5-mM HEPES; pH 7.4) supplemented with 100 U·ml^−1 penicillin and 100 μg·ml^−1 streptomycin.
# Electrophysiological recordings were conducted at ≈22°C using standard two-electrode voltage clamp. The voltage and current electrodes (G120F-4, OD = 1.20 mm, ID = 0.69 mm; Warner Instruments, Hamden, CT, USA) were filled with 3-M KCl and had resistances of 0.3–1 MΩ. The oocytes were clamped at −60 mV. The chamber (RC-1Z; Warner Instruments) was perfused with ND96 at 5–8 ml·min^−1. Solutions were gravity-applied. The current responses were amplified with an Axoclamp 900A (Molecular Devices, San Jose, CA, USA) or OC-725C amplifier (Warner Instruments), digitized with a Digidata 1200 series digitizer (Molecular Devices) and stored on PC hard drive using pClamp (Molecular Devices; RRID:SCR_011323). Current amplitudes were determined using Clampfit (Molecular Devices).
# A standard experiment consisted of a several-minute long applications of GABA followed immediately by a co-application of GABA + modulator and a wash in GABA. For normalization purposes, each cell was exposed to the combination of saturating (1-mM) GABA + 50-μM propofol, assumed to fully activate all receptors in the cell ([Eaton et al., 2016]).
structure (smiles),measurement,value
"CC(=O)[C@H]1CC[C@H]2[C@@H]3CC[C@H]4C[C@@H](O)CC[C@]4(C)[C@H]3CC[C@]12C [Epi-AlloP, epi-allopregnanolone]",potentiation of GABA-elicited currents,do not
